Converted amounts (≈) assume the structure as drawn. Read-outs that look alike come from different tables or passages of the source. Where a SMILES comes first, the peptide text is derived from it.
What was measured:
[1] = system: E. coli ATCC 25922; type: cell-based, Escherichia coli
Excerpt: (§1) To compare the antimicrobial activity among the peptides produced by the method of Example 1, the inventors of the present invention measured the minimal growth inhibitory concentration (MIC), which is minimum concentration of the peptide not allowing any […] of bacterial cells.
(§2) Specifically, the bacterial strains described in the following Table 2 were purchased and cultured to a mid-log phase in MHB (Mueller Hinton Broth) medium. Then, after dilution to bacterial cell concentration of 2×10^5 cells/50 μl, the cells were inoculated to a microtiter plate (NUNC, USA). Thereafter, LL37-1, LL37-2, LL37-3 or LL37-4 peptide which has been synthesized in Example 1 above was subjected to serial dilution, ½ times for each, in a 96-well plate. After adding the peptides in an amount of 50 μl to the cell plate, the cells were cultured for 18 hours at 37° C. By using a microtiter plate reader (Merck Elisa reader, Germany), the absorbance was measured at a wavelength of 600 nm to determine the MIC value of each bacterial strain. As a control group, LL37 as a mother peptide was used and subjected to the same process as above to determine the MIC value of each strain.

[2] = system: P. aeruginosa ATCC 27853; type: cell-based, Pseudomonas aeruginosa
Excerpt: as §1, §2

[3] = system: S. typhimurium KCTC 1925; type: cell-based, Salmonella typhimurium
Excerpt: as §1, §2

[4] = system: Human macrophage cells (U937) infected with Acinetobacter baumannii KCTC 2508; assay: Expression of inflammatory cytokines, Western blot and real time RT-PCR; type: cell-based; settings: U937 infected with A. baumannii KCTC 2508, peptide added 1 hour after infection, sample after 9 hours
Procedure: To see whether or not a change in expression of inflammatory cytokines in macrophage is caused by the peptides that are prepared by the method of above Example 1, determination was made by Western blot and real time reverse transcription polymerase chain reaction.
Specifically, Acinetobacter baumannii KCTC 2508 cells were cultured to a mid-log phase in MHB medium, and then diluted to a cell concentration of 1×10^7 cells/ml in physiological saline. Human macrophage cells (U937) were then infected with the resulting cells in time-dependent manner to yield the first sample, and another macrophage cells were infected with Acinetobacter baumannii KCTC 2508 cells, which have been diluted to a concentration of 1×10^7 cells, and added with, 1 hour after the infection, mother peptide LL37 or the homologous peptide to collect the second sample after 9 hours. Both collected samples were treated with cell lysis buffer to obtain the supernatant (sup) and pellet (lysate). Thereafter, by Western blot and real time reverse transcription polymerase chain reaction, a change in the expression level of inflammatory cytokines was examined.

[5] = system: A. baumannii #10; assay: Antibiofilm activity, Crystal violet staining; type: cell-based, Acinetobacter baumannii; settings: 24 hours
Procedure: (§3) To compare the antimicrobial activity among the peptides produced by the method of Example 1, the inventors of the present invention measured the biofilm inhibitory concentration value of the peptide for not allowing any dissociation of bacterial cells.
(§4) Specifically, among the bacterial strains described in the above Table 2, bacteria showing the most favorable biofilm forming were cultured to a mid-log phase in a medium with suitable composition. Then, after dilution to bacterial cell concentration of 1×10^6 cells/50 μl, the cells were inoculated to a microtiter plate. Thereafter, LL37, LL37-1, LL37-2, LL37-3 or LL37-4 peptide which has been synthesized in Example 1 above was diluted, 1/10 times for each, with 10 mM phosphate buffered physiological saline (PBS) in a 96-well plate. After adding the peptide (50 μl) to each well of the plate, the cells were cultured for 24 hours at 37° C. After removing the supernatant completely, the cells were fixed with 100% methanol for 15 minutes and stained for 1 hour with Crystal violet staining solution followed by rinsing for 3 times. Then, after dissolving in 95% ethanol, the absorbance was measured at a wavelength of 595 nm by using a microtiter plate reader to determine the biofilm minimal inhibitory concentration value of each bacterial strain.

[6] = system: A. baumannii KCTC 2508; assay: Antibiofilm activity, Crystal violet staining; type: cell-based, Acinetobacter baumannii; settings: 24 hours
Procedure: as §3, §4

[7] = system: A. baumannii #5; assay: Antibiofilm activity, Crystal violet staining; type: cell-based, Acinetobacter baumannii; settings: 24 hours
Procedure: as §3, §4

[8] = system: Acinetobacter baumannii KCTC 2508; type: cell-based; settings: for antimicrobial activity after reaction with trypsin: peptide 100 μg/ml with 10.7 nM trypsin, 10 minutes at 37° C., A. baumannii KCTC 2508
Procedure: To determine the activity of the peptides, which have been prepared by the method of Example 1, in the presence of trypsin as one type of proteases, peptide stability against protease was determined by radial diffusion assay.
Specifically, among the bacterial strains that are described in the above Table 2, Acinetobacter baumannii KCTC 2508 cells were cultured to a mid-log phase in MHB medium, and, after diluting the cells to a cell concentration of 2×10^5 cells/10 ml, the cells were admixed with agarose which has been adjusted to final concentration of 1% and then evenly spread and solidified on a Petri dish. After that, the peptide adjusted to a concentration of 100 μg/ml was admixed with 10.7 nM trypsin and reacted for 10 minutes at 37° C. After applying a paper disk (diameter: 6 mm) on the solidified Petri dish, the peptide obtained after the reaction with trypsin was aliquoted thereto in an amount of 25 μl. After culture for 18 hours at 37° C., diameter of the clear zone around the paper disk was measured so that the level of antimicrobial activity for Acinetobacter baumannii KCTC 2508 was determined.

Row | SMILES | Minimal inhibitory concentration ([1]; ATCC 25922, 18 h) [µM] | Minimal inhibitory concentration ([2]; ATCC 27853, 18 h) [µM] | expression level of HMGB-1 and late cytokine (IL-1b and TNF-α) [4] | Biofilm forming ability ([5]; peptide 2 μM) [%] | Biofilm forming ability ([5]; peptide 4 μM) [%] | Biofilm forming ability ([5]; peptide 8 μM) [%] | Biofilm forming ability ([5]; peptide 16 μM) [%] | Biofilm forming ability ([5]; peptide 32 μM) [%] | Biofilm forming ability ([6]; peptide 2 μM) [%] | Biofilm forming ability ([6]; peptide 4 μM) [%] | Biofilm forming ability ([6]; peptide 8 μM) [%] | Biofilm forming ability ([6]; peptide 16 μM) [%] | Biofilm forming ability ([6]; peptide 32 μM) [%] | Biofilm forming ability ([7]; peptide 2 μM) [%] | Biofilm forming ability ([7]; peptide 4 μM) [%] | Biofilm forming ability ([7]; peptide 8 μM) [%] | Biofilm forming ability ([7]; peptide 16 μM) [%] | Biofilm forming ability ([7]; peptide 32 μM) [%] | Minimal inhibitory concentration ([3]; KCTC 1925, 18 h) [µM] | antimicrobial activity after reaction with trypsin [8] | further results
1 | CC[C@H](C)[C@H](NC(=O)[C@H](CCCNC(=N)N)NC(=O)[C@H](CCC(N)=O)NC(=O)[C@@H](NC(=O)[C@@H](NC(=O)[C@H](CCCNC(=N)N)NC(=O)[C@H](CCCCN)NC(=O)[C@H](Cc1ccccc1)NC(=O)[C@H](CCCCN)NC(=O)[C@@H](N)CCCCN)[C@@H](C)CC)C(C)C)C(=O)N[C@@H](CCCCN)C(=O)N[C@@H](CC(=O)O)C(=O)N[C@@H](Cc1ccccc1)C(=O)N[C@@H](CC(C)C)C(=O)N[C@@H](CCCNC(=N)N)C(=O)N[C@@H](CC(N)=O)C(N)=O [LL37-2, KKFKRIVQRIKDFLRN-NH2] (H-KKFKRIVQRIKDFLRN-NH2) |  |  |  |  |  |  |  |  |  |  |  |  |  |  |  |  |  |  |  |  | Minimal inhibitory concentration ([1]; E. coli ATCC 25922, MHB, 18 hours at 37° C.): 16 µM (≈ 33.4 µg/mL); Minimal inhibitory concentration ([2]; P. aeruginosa ATCC 27853, MHB, 18 hours at 37° C.): 8 µM (≈ 16.7 µg/mL); Minimal inhibitory concentration ([3]; S. typhimurium KCTC 1925, MHB, 18 hours at 37° C.): 4 µM (≈ 8.35 µg/mL)
2 | CC[C@H](C)[C@H](NC(=O)[C@H](CCCNC(=N)N)NC(=O)[C@H](CCC(N)=O)NC(=O)[C@@H](NC(=O)[C@@H](NC(=O)[C@H](CCCNC(=N)N)NC(=O)[C@H](CCCCN)NC(=O)[C@H](Cc1ccccc1)NC(=O)[C@H](CCC(=O)O)NC(=O)[C@@H](N)CCCCN)[C@@H](C)CC)C(C)C)C(=O)N[C@@H](CCCCN)C(=O)N[C@@H](CCCCN)C(=O)N[C@@H](Cc1ccccc1)C(=O)N[C@@H](CC(C)C)C(=O)N[C@@H](CCCNC(=N)N)C(=O)N[C@@H](CC(N)=O)C(N)=O [LL37-3, KEFKRIVQRIKKFLRN-NH2] (H-KEFKRIVQRIKKFLRN-NH2; N-terminus assumed) | 32 (≈ 67.3 µg/mL) | 8 (≈ 16.8 µg/mL) | increase in expression level of HMGB-1 and late cytokine is lower | 61 | 38 | 34 | 32 | 30 | 52 | 41 | 29 | 25 | 23 | 60 | 62 | 26 | 24 | 20 | 8 (≈ 16.8 µg/mL) |  | 
3 | CC[C@H](C)[C@H](NC(=O)[C@H](CCCNC(=N)N)NC(=O)[C@H](CCC(N)=O)NC(=O)[C@@H](NC(=O)[C@@H](NC(=O)[C@H](CCCNC(=N)N)NC(=O)[C@H](CCCCN)NC(=O)[C@H](Cc1ccccc1)NC(=O)[C@H](CCCCN)NC(=O)[C@@H](N)CCCCN)[C@@H](C)CC)C(C)C)C(=O)N[C@@H](CCCCN)C(=O)N[C@@H](CCCCN)C(=O)N[C@@H](Cc1ccccc1)C(=O)N[C@@H](CC(C)C)C(=O)N[C@@H](CCCNC(=N)N)C(=O)N[C@@H](CC(N)=O)C(N)=O [LL37-4, KKFKRIVQRIKKFLRN-NH2] (H-KKFKRIVQRIKKFLRN-NH2; N-terminus assumed) | 16 (≈ 33.6 µg/mL) | 4 (≈ 8.41 µg/mL) | increase in expression level of HMGB-1 and late cytokine is lower | 49 | 37 | 33 | 33 | 30 | 48 | 32 | 28 | 23 | 22 | 74 | 59 | 49 | 22 | 20 | 4 (≈ 8.41 µg/mL) | showed the antimicrobial activity | decrease in clear zone compared to no treatment with trypsin ([8]; KCTC 2508, 18 h): 1.75 mm
4 | CC[C@H](C)[C@H](NC(=O)[C@H](CCCCN)NC(=O)[C@H](CCC(=O)O)NC(=O)[C@H](CCCCN)NC(=O)[C@H](CO)NC(=O)[C@H](CCCCN)NC(=O)[C@H](CCCNC(=N)N)NC(=O)[C@H](Cc1ccccc1)NC(=O)[C@H](Cc1ccccc1)NC(=O)[C@H](CC(=O)O)NC(=O)CNC(=O)[C@H](CC(C)C)NC(=O)[C@@H](N)CC(C)C)C(=O)NCC(=O)N[C@@H](CCCCN)C(=O)N[C@@H](CCC(=O)O)C(=O)N[C@@H](Cc1ccccc1)C(=O)N[C@@H](CCCCN)C(=O)N[C@@H](CCCNC(=N)N)C(=O)N[C@H](C(=O)N[C@H](C(=O)N[C@@H](CCC(N)=O)C(=O)N[C@@H](CCCNC(=N)N)C(=O)N[C@H](C(=O)N[C@@H](CCCCN)C(=O)N[C@@H](CC(=O)O)C(=O)N[C@@H](Cc1ccccc1)C(=O)N[C@@H](CC(C)C)C(=O)N[C@@H](CCCNC(=N)N)C(=O)N[C@@H](CC(N)=O)C(=O)N[C@@H](CC(C)C)C(=O)N[C@H](C(=O)N1CCC[C@H]1C(=O)N[C@@H](CCCNC(=N)N)C(=O)N[C@H](C(=O)N[C@@H](CCC(=O)O)C(=O)N[C@@H](CO)C(N)=O)[C@@H](C)O)C(C)C)[C@@H](C)CC)C(C)C)[C@@H](C)CC [LL37] | 32 (≈ 144 µg/mL) | 8 (≈ 35.9 µg/mL) | has increased more | 62 | 58 | 54 | 53 | 13 | 42 | 39 | 33 | 23 | 10 | 97 | 74 | 40 | 36 | 15 | 32 (≈ 144 µg/mL) | did not exhibit any antimicrobial activity | 

— patent publication US11452758B2, “Antimicrobial peptide derived from LL37 peptide and uses thereof” (INDUSTRY-ACADEMIC COOPERATION FOUNDATION, CHOSUN UNIVERSITY, priority 2018, dated 2022)
